Results from patent publication US7223865B2, “Chromogenic compounds, and use thereof as enzyme substrates” (Biomerieux, priority 2003, dated 2007).

Assays:
Format in all cases: cell-based
Proteus mirabilis = assay: L-alanine-aminopeptidase activity on gelled medium, Example 1; conditions: 0.3 g/l, 24 hours
Protocol: (§1) A gelled medium comprising L-alanyl-9-(4-amino-styryl)acridine (hereinafter referred to as L-Ala-4-ASA) or L-alanyl-aminophenylacridine (hereinafter referred to as L-Ala-APA) is prepared as follows: 46.37 g of Columbia agar are added to 1 liter of distilled water and then autoclaved. This reaction medium is separated into two media of equivalent volume. Each of these media comprises, respectively: 0.3 g/l of L-Ala-4-ASA provided by means of the stock solution in DMSO, and 0.3 g/l of L-Ala-APA also provided by means of a stock solution in DMSO.
(§2) Microorganisms derived from the applicant's collection were seeded onto each of the media, by delimitation as three dials, using a suspension at 0.5 McFarland. The dishes were incubated at 37° C. for 24 hours. The colonies formed were examined visually after incubation for 24 hours. The color of these colonies was noted before and after addition of a drop of hydrochloric acid.

Candida albicans = assay: as above; conditions: 0.3 g/l, 24 hours
Protocol: as §1, §2

Enterobacter cloacae = assay: as above; conditions: 0.3 g/l, 24 hours
Protocol: as §1, §2

Streptococcus agalactiae = assay: as above; conditions: 0.3 g/l, 24 hours
Protocol: as §1, §2

Listeria innocua = assay: as above; conditions: 0.3 g/l, 24 hours
Protocol: as §1, §2

Klebsiella pneumoniae = assay: as above; conditions: 0.3 g/l, 24 hours
Protocol: as §1, §2

Citrobacter koseri = assay: as above; conditions: 0.3 g/l, 24 hours
Protocol: as §1, §2

Staphylococcus aureus = assay: as above; conditions: 0.3 g/l, 24 hours
Protocol: as §1, §2

Escherichia coli = assay: as above; conditions: 0.3 g/l, 24 hours
Protocol: as §1, §2

Enterococcus faecalis = assay: as above; conditions: 0.3 g/l, 24 hours
Protocol: as §1, §2

[1] = tested on: Salmonella poona (NCTC 4840); assay: pyroglutamine-aminopeptidase activity on gelled medium, Example 9; parameters: key to growth: ++ means good growth; + means moderate growth; +/− means poor growth; NG means no growth
Protocol: (§3) A gelled medium comprising this substrate is prepared as follows: 30 mg of each substrate are dissolved (heating) in 10 ml of sterile distilled water. Ten ml of this solution are then added to 90 ml of Columbia agar kept molten at 50° C.
(§4) Various strains of microorganisms derived from the NCTC collection (National Collection of Type Cultures, Colindale, UK) were seeded onto the media thus obtained according to the multipoint inoculation described in example 8 above.
(§5) The colonies formed were examined visually after incubation for 24 h and 48 h. The color and the growth of these colonies were noted.

[2] = tested on: Escherichia coli 0157 (NCTC 12079); assay: as above; parameters: key to growth: ++ means good growth; + means moderate growth; +/− means poor growth; NG means no growth
Protocol: as §3, §4, §5

[3] = tested on: Escherichia coli (NCTC 14018); assay: as above; parameters: key to growth: ++ means good growth; + means moderate growth; +/− means poor growth; NG means no growth
Protocol: as §3, §4, §5

[4] = tested on: Salmonella typhimurium (NCTC 74); assay: as above; parameters: key to growth: ++ means good growth; + means moderate growth; +/− means poor growth; NG means no growth
Protocol: as §3, §4, §5

[5] = tested on: Enterobacter cloacae (NCTC 11936); assay: as above; parameters: key to growth: ++ means good growth; + means moderate growth; +/− means poor growth; NG means no growth
Protocol: as §3, §4, §5

[6] = tested on: Serratia marcescens (NCTC 10211); assay: as above; parameters: key to growth: ++ means good growth; + means moderate growth; +/− means poor growth; NG means no growth
Protocol: as §3, §4, §5

[7] = tested on: Shigella sonnei (NCTC 9774); assay: as above; parameters: key to growth: ++ means good growth; + means moderate growth; +/− means poor growth; NG means no growth
Protocol: as §3, §4, §5

[8] = tested on: Klebsiella pneumonia (NCTC 10896); assay: as above; parameters: key to growth: ++ means good growth; + means moderate growth; +/− means poor growth; NG means no growth
Protocol: as §3, §4, §5

[9] = tested on: Burkholderia cepacia (NCTC 10743); assay: as above; parameters: key to growth: ++ means good growth; + means moderate growth; +/− means poor growth; NG means no growth
Protocol: as §3, §4, §5

[10] = tested on: Pseudomonas aeruginosa (NCTC 10662); assay: as above; parameters: key to growth: ++ means good growth; + means moderate growth; +/− means poor growth; NG means no growth
Protocol: as §3, §4, §5

C[C@H](N)C(=O)Nc1ccc(C=Cc2c3ccccc3nc3ccccc23)cc1 [L-Ala-4-ASA, L-alanyl-9-(4-aminostyryl)acridine]
gray-mauve: color of colonies (Proteus mirabilis; with HCl) | color of colonies (Enterobacter cloacae; with HCl) | color of colonies (Klebsiella pneumoniae; with HCl) | color of colonies (Citrobacter koseri; with HCl) | color of colonies (Escherichia coli; with HCl)
colorless: color of colonies (Proteus mirabilis; without HCl) | color of colonies (Candida albicans; with HCl) | color of colonies (Candida albicans; without HCl) | color of colonies (Enterobacter cloacae; without HCl) | color of colonies (Streptococcus agalactiae; with HCl) | color of colonies (Streptococcus agalactiae; without HCl) | color of colonies (Listeria innocua; with HCl) | color of colonies (Listeria innocua; without HCl) | color of colonies (Klebsiella pneumoniae; without HCl) | color of colonies (Citrobacter koseri; without HCl) | color of colonies (Staphylococcus aureus; with HCl) | color of colonies (Staphylococcus aureus; without HCl) | color of colonies (Escherichia coli; without HCl) | color of colonies (Enterococcus faecalis; with HCl) | color of colonies (Enterococcus faecalis; without HCl)

C[n+]1c2ccccc2c(-c2ccc(NC(=O)C3CCC(=O)N3)cc2)c2ccccc21.[Cl-] (centres unmarked) [PG-4-AP-10-MA, pyroglutamyl-9-(4-aminophenyl)-10-methyl-acridine]
++: growth ([1]; 24 h) | growth ([1]; 48 h) | growth ([2]; 24 h) | growth ([2]; 48 h) | growth ([3]; 24 h) | growth ([3]; 48 h) | growth ([4]; 24 h) | growth ([4]; 48 h) | growth ([5]; 24 h) | growth ([5]; 48 h) | growth ([6]; 24 h) | growth ([6]; 48 h) | growth ([7]; 24 h) | growth ([7]; 48 h) | growth ([8]; 24 h) | growth ([8]; 48 h) | growth ([9]; 24 h) | growth ([9]; 48 h) | growth ([10]; 24 h) | growth ([10]; 48 h)
Orange: color of colonies ([10]; 48 h)
Colorless: color of colonies ([1]; 24 h) | color of colonies ([1]; 48 h) | color of colonies ([2]; 24 h) | color of colonies ([2]; 48 h) | color of colonies ([3]; 24 h) | color of colonies ([3]; 48 h) | color of colonies ([4]; 24 h) | color of colonies ([4]; 48 h) | color of colonies ([5]; 24 h) | color of colonies ([6]; 24 h) | color of colonies ([7]; 24 h) | color of colonies ([7]; 48 h) | color of colonies ([8]; 24 h) | color of colonies ([9]; 24 h) | color of colonies ([10]; 24 h)
Pale orange: color of colonies ([5]; 48 h) | color of colonies ([6]; 48 h) | color of colonies ([8]; 48 h) | color of colonies ([9]; 48 h)

C[C@H](N)C(=O)Nc1ccc(-c2c3ccccc3nc3ccccc23)cc1 [L-Ala-APA]
Colorless: color of colonies (Candida albicans; with HCl)
very pale-: color of colonies (Proteus mirabilis; with HCl)
mauve: color of colonies (Enterobacter cloacae; with HCl) | color of colonies (Klebsiella pneumoniae; with HCl) | color of colonies (Citrobacter koseri; with HCl)
colorless: color of colonies (Proteus mirabilis; without HCl) | color of colonies (Candida albicans; without HCl) | color of colonies (Enterobacter cloacae; without HCl) | color of colonies (Streptococcus agalactiae; with HCl) | color of colonies (Streptococcus agalactiae; without HCl) | color of colonies (Listeria innocua; with HCl) | color of colonies (Listeria innocua; without HCl) | color of colonies (Klebsiella pneumoniae; without HCl) | color of colonies (Citrobacter koseri; without HCl) | color of colonies (Staphylococcus aureus; with HCl) | color of colonies (Staphylococcus aureus; without HCl) | color of colonies (Escherichia coli; without HCl) | color of colonies (Enterococcus faecalis; with HCl) | color of colonies (Enterococcus faecalis; without HCl)
pale mauve: color of colonies (Escherichia coli; with HCl)
